From patent US20260041095A1, “A PRESERVATION METHOD” (AnalytiCon Discovery - Zweigniederlassung der BRAIN Biotech …, priority 2022, published 2026)
≈ marks a conversion by molar mass, not a printed value.

Key:
Type in all cases: cell-based
[1] = tested on: Yarrowia lipolytica DSM 70561; assay: Antimicrobial activity (MIC), Yarrowia lipolytica DSM 70561; settings: DSM70561, potato dextrose broth pH 3.8, visual evaluation, read-out: Minimal Inhibitory Concentration (MIC)
[2] = tested on: Alicyclobacillus acidoterrestris DSM 2498; assay: Antimicrobial activity (MIC), Alicyclobacillus acidoterrestris DSM 2498; settings: DSM2498, potato dextrose broth pH 3.8, visual evaluation, read-out: Minimal Inhibitory Concentration (MIC)
[3] = tested on: Aspergillus brasiliensis DSM 1988; assay: Antimicrobial activity (MIC), Aspergillus brasiliensis DSM 1988; settings: DSM1988, potato dextrose broth pH 3.8, visual evaluation, read-out: Minimal Inhibitory Concentration (MIC)
[4] = tested on: Dekkera naardenensis CBS 6115; assay: Antimicrobial activity (MIC), Dekkera naardenensis CBS 6115; settings: Brettanomyces naardenensis, CBS6115, potato dextrose broth pH 3.8, visual evaluation, read-out: Minimal Inhibitory Concentration (MIC)
[5] = tested on: Saccharomyces cerevisiae SUN06; assay: Antimicrobial activity (MIC), Saccharomyces cerevisiae SUN06; settings: potato dextrose broth pH 3.8, visual evaluation, read-out: Minimal Inhibitory Concentration (MIC)
[6] = tested on: Neosartorya fischeri SUN09; assay: Antimicrobial activity (MIC), Neosartorya fischeri SUN09; settings: Aspergillus fischeri, potato dextrose broth pH 3.8, visual evaluation, read-out: Minimal Inhibitory Concentration (MIC)
[7] = tested on: Saccharomyces cerevisiae SUN01; assay: Antimicrobial activity (MIC), Saccharomyces cerevisiae SUN01; settings: potato dextrose broth pH 3.8, visual evaluation, read-out: Minimal Inhibitory Concentration (MIC)
[8] = tested on: Bacillus licheniformis DSM 13; assay: Antimicrobial activity (MIC), Bacillus licheniformis DSM 13; settings: DSM13, potato dextrose broth pH 3.8, visual evaluation, read-out: Minimal Inhibitory Concentration (MIC)
[9] = tested on: Clostridium sporogenes ATCC19404; assay: Antimicrobial activity (MIC), Clostridium sporogenes ATCC19404; settings: potato dextrose broth pH 3.8, visual evaluation, read-out: Minimal Inhibitory Concentration (MIC)
Experimental: Compounds are dissolved at a concentration of 20 mg/mL using 100% DMSO. • Preculture: yeast and bacteria are plated on potato dextrose agar, resuspended in potato dextrose broth and CFU via OD measurement determined; adjusting CFU of the strain in PDB pH 3.8 • Preculture: for mycel forming fungi spores were directly used after thawing of cryopreserved stocks of known titre • Final titre used for the assay: Yeast strains 5*10^3 CFU/ml, Bacteria 1*10^6 CFU/ml, Fungi (spores) 5*10^4 CFU/ml • Potato dextrose broth pH 3.8 was used as assay matrix • 500 ppm (0.05%) of the compounds were screened (final DMSO 2.5% (v/v)) • Volume: 100 μl in 96-well format • Positive controls: potassium sorbate, sodium benzoate & triclosan • 28° C. to 30° C., static incubation • Incubation time depending on spoilage organism between 2 and 8 days • Visual evaluation (per eye, for fungi with binocular magnification)

[10] = tested on: Lactobacillus paracasei ssp. paracasei DSM 46331; assay: Antimicrobial activity (MIC), Lactobacillus paracasei ssp. paracasei DSM 46331; settings: Lacticaseibacillus paracasei, DSM46331, potato dextrose broth pH 3.8, visual evaluation, read-out: Minimal Inhibitory Concentration (MIC)
[11] = tested on: Saccharomyces cerevisiae DSM 2548; assay: Antimicrobial activity (MIC), Saccharomyces cerevisiae DSM 2548; settings: DSM2548, potato dextrose broth pH 3.8, visual evaluation, read-out: Minimal Inhibitory Concentration (MIC)
[12] = tested on: Penicillium paneum SUN04; assay: Antimicrobial activity (MIC), Penicillium paneum SUN04; settings: potato dextrose broth pH 3.8, visual evaluation, read-out: Minimal Inhibitory Concentration (MIC)
[13] = tested on: Malassezia furfur DSM 6170; assay: Antimicrobial activity (MIC), Malassezia furfur DSM 6170; settings: DSM6170, potato dextrose broth pH 3.8, visual evaluation, read-out: Minimal Inhibitory Concentration (MIC)
[14] = tested on: Leuconostoc mesenteroides DSM 20343; assay: Antimicrobial activity (MIC), Leuconostoc mesenteroides DSM 20343; settings: DSM20343, potato dextrose broth pH 3.8, visual evaluation, read-out: Minimal Inhibitory Concentration (MIC)
[15] = tested on: Zygosaccharomyces bailii DSM 70834; assay: Antimicrobial activity (MIC), Zygosaccharomyces bailii DSM 70834; settings: DSM70834, potato dextrose broth pH 3.8, visual evaluation, read-out: Minimal Inhibitory Concentration (MIC)
[16] = tested on: Zygosaccharomyces bailli SUN07; assay: Antimicrobial activity (MIC), Zygosaccharomyces bailli SUN07; settings: potato dextrose broth pH 3.8, visual evaluation, read-out: Minimal Inhibitory Concentration (MIC)
[17] = tested on: Leuconostoc lactis DSM 20202; assay: Antimicrobial activity (MIC), Leuconostoc lactis DSM 20202; settings: DSM20202, potato dextrose broth pH 3.8, visual evaluation, read-out: Minimal Inhibitory Concentration (MIC)
[18] = tested on: Candida parapsilosis SUN05; assay: Antimicrobial activity (MIC), Candida parapsilosis SUN05; settings: Lodderomyces parapsilosis, potato dextrose broth pH 3.8, visual evaluation, read-out: Minimal Inhibitory Concentration (MIC)
[19] = tested on: Clostridium perfringens DSM756; assay: microbe, parasite or virus in culture; settings: DSM756, pH 3.8, read-out: Minimal Inhibitory Concentration (MIC)
[20] = tested on: Candida parapsilosis ATCC 20384; assay: Antimicrobial activity (MIC), Candida parapsilosis ATCC 20384; settings: Lodderomyces parapsilosis, ATCC20384, potato dextrose broth pH 3.8, visual evaluation, read-out: Minimal Inhibitory Concentration (MIC)
[21] = tested on: Asaia siamensis SUN03; assay: Antimicrobial activity (MIC), Asaia siamensis SUN03; settings: potato dextrose broth pH 3.8, visual evaluation
[22] = tested on: Candida albicans ATCC10231; assay: Antimicrobial activity (MIC), Candida albicans ATCC10231; settings: potato dextrose broth pH 3.8, visual evaluation, read-out: Minimal Inhibitory Concentration (MIC)
[23] = tested on: Brettanomyces sp SUN08; assay: Antimicrobial activity (MIC), Brettanomyces sp SUN08; settings: potato dextrose broth pH 3.8, visual evaluation, read-out: Minimal Inhibitory Concentration (MIC)
[24] = tested on: Byssochlamys nivea SUN10; assay: Antimicrobial activity (MIC), Byssochlamys nivea SUN10; settings: Paecilomyces niveus, potato dextrose broth pH 3.8, visual evaluation, read-out: Minimal Inhibitory Concentration (MIC)
[25] = tested on: Zygosaccharomyces rouxii DSM 7525; assay: Antimicrobial activity (MIC), Zygosaccharomyces rouxii DSM 7525; settings: DSM7525, potato dextrose broth pH 3.8, visual evaluation, read-out: Minimal Inhibitory Concentration (MIC)
[26] = tested on: Penicillium expansum DSM 62841; assay: Antimicrobial activity (MIC), Penicillium expansum DSM 62841; settings: DSM62841, potato dextrose broth pH 3.8, visual evaluation, read-out: Minimal Inhibitory Concentration (MIC)
[27] = tested on: Zygosaccharomyces bailli SUN02; assay: Antimicrobial activity (MIC), Zygosaccharomyces bailli SUN02; settings: potato dextrose broth pH 3.8, visual evaluation, read-out: Minimal Inhibitory Concentration (MIC)
[28] = tested on: Corynebacterium xerosis DSM 20743; assay: Antimicrobial activity (MIC), Corynebacterium xerosis DSM 20743; settings: DSM20743, potato dextrose broth pH 3.8, visual evaluation, read-out: Minimal Inhibitory Concentration (MIC)
[29] = tested on: Bacillus subtilis ATCC 6633; assay: Antimicrobial activity (MIC), Bacillus subtilis ATCC 6633; settings: ATCC6633, potato dextrose broth pH 3.8, visual evaluation, read-out: Minimal Inhibitory Concentration (MIC)
[30] = tested on: Gluconacetobacter liquefaciens DSM 5603; assay: Antimicrobial activity (MIC), Gluconacetobacter liquefaciens DSM 5603; settings: DSM5603, potato dextrose broth pH 3.8, visual evaluation, read-out: Minimal Inhibitory Concentration (MIC)
[31] = tested on: Enterococcus faecalis ATCC 7080; assay: Antimicrobial activity (MIC), Enterococcus faecalis ATCC 7080; settings: ATCC7080, potato dextrose broth pH 3.8, visual evaluation, read-out: Minimal Inhibitory Concentration (MIC)

| SMILES | MIC [5] | MIC [6] | MIC [7] | MIC [9] | MIC [12] | MIC [16] | MIC [17] | MIC [18] | MIC [23] | MIC [24] | MIC [27] | also measured |
| --- | --- | --- | --- | --- | --- | --- | --- | --- | --- | --- | --- | --- |
| CCCCCC(O)CC(=O)O[C@H]1[C@H](O[C@H]2[C@H](O)[C@@H](O)[C@H](OCC(O)CCCCCCCCCCCCC(O)C(=O)O)O[C@@H]2COC(C)=O)O[C@H](CO)[C@@H](O)[C@@H]1O (stereo partly shown) [NP-018256] | ≤ 125 µg/mL | ≤ 125 µg/mL | ≤ 125 µg/mL | 80 µg/mL (≈ 98.4 µM) | ≤ 125 µg/mL | 500 µg/mL (≈ 615 µM) | 240 µg/mL (≈ 295 µM) | ≤ 125 µg/mL | ≤ 125 µg/mL | ≤ 125 µg/mL | ≤ 125 µg/mL | MIC [1]: 240 µg/mL (≈ 295 µM); MIC [2]: 240 µg/mL (≈ 295 µM); MIC [3]: 240 µg/mL (≈ 295 µM); MIC [4]: 80 µg/mL (≈ 98.4 µM); MIC [8]: 240 µg/mL (≈ 295 µM); MIC [10]: 240 µg/mL (≈ 295 µM); MIC [11]: 240 µg/mL (≈ 295 µM); MIC [13]: 80 µg/mL (≈ 98.4 µM); MIC [14]: 240 µg/mL (≈ 295 µM); MIC [15]: 80 µg/mL (≈ 98.4 µM); MIC [19]: 80 µg/mL (≈ 98.4 µM); MIC [20]: 240 µg/mL (≈ 295 µM); Minimal Inhibitory Concentration (MIC) [21]: inact.; MIC [22]: 80 µg/mL (≈ 98.4 µM); MIC [25]: 80 µg/mL (≈ 98.4 µM); MIC [26]: 240 µg/mL (≈ 295 µM); MIC [28]: 1200 µg/mL (≈ 1480 µM) |
| O=C(O)CCCCCCCCCCCCCC(O)CO[C@@H]1O[C@H](COC(=O)O)[C@@H](O[C@@H]2O[C@H](CO)[C@@H](O)[C@H](O)[C@H]2OC(=O)CC(O)CCO)[C@H](O)[C@H]1O (stereo partly shown) [NP-018250] | 125 µg/mL (≈ 162 µM) | 125 µg/mL (≈ 162 µM) | 125 µg/mL (≈ 162 µM) | 250 µg/mL (≈ 323 µM) | 125 µg/mL (≈ 162 µM) | 125 µg/mL (≈ 162 µM) | 250 µg/mL (≈ 323 µM) | 125 µg/mL (≈ 162 µM) | 125 µg/mL (≈ 162 µM) | 125 µg/mL (≈ 162 µM) | 125 µg/mL (≈ 162 µM) | MIC ([21]; read-out: Minimal Inhibitory Concentration (MIC)): ≤ 125 µg/mL; MIC [29]: 250 µg/mL (≈ 323 µM); MIC [30]: 250 µg/mL (≈ 323 µM); MIC [31]: 250 µg/mL (≈ 323 µM) |
